Values joined by “and” are separate entries in the source; they are usually repeats but may differ in a detail not shown here. Equal entries are not always repeated. Blank lines part the entries; values can stand above or below the compound they belong to.
What was measured:
[1] = molecular target: T1, Vitamin D3 receptor (Homo sapiens) (UniProt P11473); assay: Displacement of [3H]1-alpha,25-(OH)2D3 from thymus VDR realtive to 1-alpha,25-(OH)2D3
T1 sequence (whole entry): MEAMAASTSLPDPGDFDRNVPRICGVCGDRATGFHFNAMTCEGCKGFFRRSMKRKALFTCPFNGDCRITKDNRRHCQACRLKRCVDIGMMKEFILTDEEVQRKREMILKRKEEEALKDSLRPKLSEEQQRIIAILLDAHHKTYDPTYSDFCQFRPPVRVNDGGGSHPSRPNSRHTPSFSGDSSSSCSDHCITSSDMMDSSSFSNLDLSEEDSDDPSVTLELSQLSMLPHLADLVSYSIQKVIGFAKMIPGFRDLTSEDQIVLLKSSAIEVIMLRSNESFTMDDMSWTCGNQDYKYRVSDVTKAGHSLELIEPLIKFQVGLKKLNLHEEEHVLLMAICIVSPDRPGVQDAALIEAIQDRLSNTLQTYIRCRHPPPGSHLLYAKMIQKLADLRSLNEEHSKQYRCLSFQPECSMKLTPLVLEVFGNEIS

[2] = molecular target: T1, Vitamin D3 receptor (Homo sapiens); assay: […] of human VDR induced-transcriptional transactivation of luciferase reporter gene in COS7 cells after 24 hrs relative to 1-alpha,25-(OH)2D3; assay type: cell-based; conditions: COS-7
Vitamin D3 receptor = molecular target: T2, Vitamin D3 receptor (Homo sapiens, UniProt P11473); assay: […] of human VDR induced-transcriptional transactivation of luciferase reporter gene in COS7 cells after 24 hrs; assay type: cell-based, COS-7
T2 sequence (P11473 whole entry): T1 sequence (whole entry)

[3] = molecular target: T3, Vitamin D3 receptor (Rattus norvegicus) (UniProt P13053); assay: Displacement of [3H]1-alpha,25-(OH)2D3 from rat recombinant VDR ligand-binding domain expressed in Escherichia coli BL21 realtive to 1-alpha,25-(OH)2D3
T3 sequence (whole entry): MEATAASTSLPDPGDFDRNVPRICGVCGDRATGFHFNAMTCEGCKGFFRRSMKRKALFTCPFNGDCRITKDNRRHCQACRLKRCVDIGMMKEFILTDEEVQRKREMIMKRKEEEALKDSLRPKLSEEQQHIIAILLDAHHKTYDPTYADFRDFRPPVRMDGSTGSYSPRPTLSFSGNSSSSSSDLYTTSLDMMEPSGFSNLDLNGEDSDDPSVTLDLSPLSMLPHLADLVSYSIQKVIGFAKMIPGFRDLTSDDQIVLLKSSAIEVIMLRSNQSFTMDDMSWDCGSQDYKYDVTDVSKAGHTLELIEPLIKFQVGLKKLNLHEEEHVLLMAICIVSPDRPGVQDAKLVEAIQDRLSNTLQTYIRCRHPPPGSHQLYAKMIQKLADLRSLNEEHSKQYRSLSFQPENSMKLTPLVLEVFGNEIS

EC50 (Vitamin D3 receptor): 2.2 nM
Structure (SMILES): C[C@H](CCCC(C)(C)O)C1CCC2/C(=C/C=C3C[C@@H](O)C(=CCF)[C@H](O)C3)CCCC21C (some centres undefined) [listing 3 of 3 here]

Activity [3]: 0.07% and 1.08%
Structure (SMILES): C[C@@H](CCCC(C)(C)O)C1CCC2/C(=C/C=C3C[C@@H](O)C(=CCF)[C@H](O)C3)CCCC21C (some centres undefined) [listing 1 of 3 here]

EC50 (Vitamin D3 receptor): 0.07 nM
Structure (SMILES): C[C@@H](CCCC(C)(C)O)C1CCC2/C(=C/C=C3C[C@@H](O)C(=CCF)[C@H](O)C3)CCCC21C (some centres undefined) [listing 2 of 3 here]

EC50 (Vitamin D3 receptor): 1.1 nM
Structure (SMILES): C[C@@H](CCCC(C)(C)O)C1CCC2/C(=C/C=C3C[C@@H](O)C(=CCF)[C@H](O)C3)CCCC21C (some centres undefined) [listing 3 of 3 here]

Second part, the compound before the results:

Structure (SMILES): C[C@@H](CCCC(C)(C)O)C1CCC2/C(=C/C=C3C[C@@H](O)C(=CCO)[C@H](O)C3)CCCC21C (some centres undefined)
Activity [1]: 0.02% and 1.6% | Activity [2]: 4.2 and 12.5

Structure (SMILES): C[C@H](CCCC(C)(C)O)C1CCC2/C(=C/C=C3C[C@@H](O)C(=CCF)[C@H](O)C3)CCCC21C (some centres undefined) [listing 1 of 3 here]
EC50 (Vitamin D3 receptor): 0.5 nM

Structure (SMILES): C[C@H](CCCC(C)(C)O)C1CCC2/C(=C/C=C3C[C@@H](O)C(=CCF)[C@H](O)C3)CCCC21C (some centres undefined) [listing 2 of 3 here]
Activity [3]: 0.77% and 0.05%

Structure (SMILES): C[C@H](CCCC(C)(C)O)C1CCC2/C(=C/C=C3C[C@@H](O)C(=CCO)[C@H](O)C3)CCCC21C (some centres undefined)
Activity [1]: 2% and 0.007%

Source: ChEMBL document CHEMBL1142881, “Structure-activity relationships of 19-norvitamin D analogs having a fluoroethylidene group at the C-2 position” (Bioorg Med Chem, 2007)
